TGI and GI50 data for 17 compounds are collected here from PubChem BioAssay (NCI).

Where “and” joins values, the source holds several entries; their conditions need not be identical. Identical values can stand only once.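 Assay format: 96-well plates, 48-hour exposure. Here, GI50 denotes the concentration required for 50% inhibition of growth. TGI is the concentration that stops growth completely.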 Bounds are passed on as bounds.

What all share (assay): inhibition of tumour cell growth, NCI panel, 48 h
Test [1] has as its system HS 578T breast.
The test system of test [2] is MDA-N.
Test [3] deals with OVCAR-5 ovarian.
Test [4] relates to PC-3 prostate.
Test [5] concerns SK-OV-3 ovarian.
Test [6] has as its system A498 renal.
In test [7] the test system is HCT-116 colon.
In test [8] the test system is K-562 leukemia.
Test [9] deals with SF-268 CNS.
The test system of test [10] is NCI/ADR-RES ovarian.

As for `COc1cc2c(c(OC)c1OC)-c1ccc(SC)cc1C(=O)CC2`, the TGI was more than 100 µM in test [1]; 27.2 µM in test [2]; more than 100 µM in test [3]; more than 100 µM in test [4]; less than 0.01 µM in [5].

For the compound `COC(=O)C1C2CC3C(OC(=O)C31)C2OC(=O)[C@](OC)(c1ccccc1)C(F)(F)F` (stereo partly specified), the TGI in test [6], in [7], in test [8], in test [3], in [9] and in test [5] was more than 100 µM throughout.

For `O=C1NC2(C=Cc3c(ccc4ccccc34)O2)Oc2ccccc21` (stereo unspecified), the TGI was 40.8 µM in test [7], more than 100 µM in test [8], more than 100 µM in test [3] and 58.3 µM in test [9].

Turning to `CC[C@H](C)C1=C(OC(C)=O)[N@+]2([O-])Oc3ccc(-c4c(OC(C)=O)c(OC(C)=O)c(-c5ccc(OC(C)=O)cc5)c(OC(C)=O)c4OC(C)=O)cc3O[C@]2([C@@H](C)CC)C(=O)N1OC(C)=O`, the TGI is 42.5 µM in test [6]; more than 50 µM in test [7]; more than 50 µM in test [8]; more than 50 µM in [2]; more than 50 µM in test [10]; more than 50 µM in [3]. Moreover, the TGI in test [4] was 30 µM; in [9], more than 50 µM; in test [5], 49.4 µM.

For `COc1ccccc1N=C1SCCN1C(=S)Nc1ccc(S(=O)(=O)/N=C/N(C)C)cc1`, the TGI in test [6], in test [7], in [8], in test [2], in [10] and in test [3] was more than 100 µM throughout. The TGI in test [4] was more than 100 µM; in [9], 55.2 µM; in [5], more than 100 µM.

On to `CCCCNC(=S)Nc1nc(C(=O)NNC(=O)c2ccccc2)cs1`, for which the TGI in test [6] was 79.3 µM; in test [7], 27.1 µM; in test [8], more than 100 µM; in test [2] it was 39.4 µM; in test [10] it was 64.2 µM; in [3] it was 35 µM. Moreover, the TGI in test [4] is 39.7 µM; in test [9], more than 100 µM; in test [5] it was 35.3 µM.

Regarding `O=C(NN=C1CCCCC1)NN=C1CCCCC1`, the TGI in test [7], in test [1], in [8], in test [2], in [10] and in test [3] was more than 100 µM each time. In addition, the TGI in [4] and in [5] was more than 100 µM each time.

For `c1ccc(C2[C@@H]3CCCc4ccccc4C3=NN2c2ccccc2)cc1` (stereo partly specified), the TGI in test [6], in test [7], in [8], in test [3] and in test [9] was more than 100 µM each time.

In the case of `COc1ccc2[nH]c(O)c(/C=c3/cc4c(c(-c5ccc(F)cc5)n3)=Nc3ccccc3-4)c2c1`, the GI50 in test [6] is 13.2 µM; in test [7], 1.67 µM; in test [1] it was 2.02 µM; in [8] it was 2.45 µM; in test [10], 2 µM; in test [3], 13.8 µM. For the same compound, the GI50 in [4] was 8.26 µM; in test [9] it was 5.43 µM; in test [5] it was 17.2 µM. Also, the TGI in test [6] is 34.3 µM; in test [7] it was 3.04 µM; in [1], 7.48 µM; in test [8] it was 7.95 µM; in test [10], 5.63 µM; in test [3] it was 35.6 µM. Moreover, the TGI was more than 100 µM in test [4], 43.8 µM in test [9] and 33.8 µM in test [5].

`OC(c1ccccc1)(c1cccnc1)C(O)(c1ccccc1)c1cccnc1` (stereo unspecified): the TGI in [7], in test [1], in test [2], in test [10], in test [3] and in test [4] was more than 100 µM in each case. Further, the TGI in [9] and in test [5] was more than 100 µM in each case.

Turning to `CC(=O)CC(=O)/C=C/c1cccs1`, the TGI in test [6], in test [7], in test [8], in [3], in [9] and in test [5] was more than 100 µM in each case.

For the compound `CC(=O)n1ccc2c(Cl)ncnc21`, the TGI in [6], in test [7], in test [8], in [9] and in test [5] was more than 100 µM each time.

As to `COC(=O)[C@H](CCSC)NC(=O)c1ccc(CNC(=O)/C(C)=C/c2ccccc2)cc1`, the TGI in test [6] is more than 100 µM; in test [7], more than 100 µM; in test [8], more than 100 µM; in [2], more than 100 µM; in [10] it was 68.5 µM; in test [3], more than 100 µM. The figures for the TGI in test [4], in [9] and in test [5] were more than 100 µM, 70.1 µM and more than 100 µM, respectively.

Consider `c1ccc(CCn2cncn2)cc1`, for which the TGI in test [7], in [8], in test [3], in [9] and in test [5] was more than 100 µM throughout.

For the compound `Brc1cccc[n+]1-c1ccc2cc(-[n+]3ccccc3Br)ccc2c1`, the TGI in [6], in test [7], in test [1], in test [8], in [10] and in test [3] was more than 100 µM in each case. Further, the figures for the TGI in test [4], in [9] and in [5] were more than 100 µM, 90.4 µM and 55.6 µM, respectively.

For the compound `COC[C@@H](Cc1ccc(OC)c(OC)c1)[C@@H](COC)Cc1ccc(OC)c(OC)c1`, the TGI in test [6], in test [7], in test [8], in test [3], in [9] and in test [5] was more than 100 µM in each case.

Turning to `CCC1(O)CC(OC2CC(N(C)C)C(OC3CC(O)C(OC4CCC(=O)C(C)O4)C(C)O3)C(C)O2)c2c(O)c3c(c(O)c2C1C(=O)OC)C(=O)c1cccc(O)c1C3=O` (stereo unspecified), the TGI is 0.0125 µM in [8]; 0.107 µM and 0.0142 µM in test [2]; 0.0735 µM and 0.722 µM in test [3]; 0.252 µM and 0.132 µM in [4]; 0.32 µM and 0.973 µM in [9].
